Results: patent US10913727B2, “Modulators of the integrated stress pathway” (Calico Life Sciences LLC, priority 2016, dated 2021)

What follows are compounds tested on HEK293T cells carrying the ATF4 luciferase reporter (assay: ATF4-Luc assay, in vitro model of Vanishing Cell White Matter Disease (VWMD)). Details: Homo sapiens, HEK-293T, 1 μg/mL tunicamycin, 7 hours, One Glo luminescence.
Format: cell-based
Procedure: In order to test exemplary compounds of the invention in a cellular context, a stable VWMD cell line was first constructed. The ATF4 reporter was prepared by fusing the human full-length ATF4 5′-UTR (NCBI Accession No. BC022088.2) in front of the firefly luciferase (FLuc) coding sequence lacking the initiator methionine as described in Sidrauski et al (eLife 2013). The construct was used to produce recombinant retroviruses using standard methods and the resulting viral supernatant was used to transduce HEK293T cells, which were then subsequently selected with puromycin to generate a stable cell line.
HEK293T cells carrying the ATF4 luciferase reporter were plated on polylysine coated 384-well plates (Greiner Bio-one) at 30,000 cells per well. Cells were treated the next day with 1 μg/mL tunicamycin and 200 nM of a compound of Formula (I) for 7 hours. Luminescence was measured using One Glo (Promega) as specified by the manufacturer. Cells were maintained in DMEM with L-glutamine supplemented with 10% heat-inactivated FBS (Gibco) and Antibiotic-Antimycotic solution (Gibco).
Table 2 below summarizes the EC50 data obtained using the ATF4-Luc assay for exemplary compounds of the invention.
`O=C(COc1ccc(Cl)c(F)c1)NC12CC(NC(=O)c3coc4ccccc34)(C1)C2` [Compound 243, N-{3-[2-(4-chloro-3-fluorophenoxy)acetamido]bicyclo[1.1.1]pentan-1-yl}-1-benzofuran-3-carboxamide] gave an EC50 of 250 to 1000 nM.
In the case of `O=C(COc1ccc(Cl)c(F)c1)NC12CCC(NC(=O)c3cn4cc(F)ccc4n3)(CC1)CC2O` (stereo not shown) [Compound 600, N-{4-[2-(4-chloro-3-fluorophenoxy)acetamido]-3-hydroxybicyclo[2.2.2]octan-1-yl}-6-fluoroimidazo[1,2-a]pyridine-2-carboxamide], the EC50 is reported as 250 to 1000 nM.
For `CCc1noc(C(=O)NC23CC(NC(=O)COc4ccc(Cl)c(F)c4)(C2)C3)n1` [Compound 479, N-{3-[2-(4-chloro-3-fluorophenoxy)acetamido]bicyclo[1.1.1]pentan-1-yl}-3-ethyl-1,2,4-oxadiazole-5-carboxamide], the EC50 was 50 to 250 nM.
In the case of `O=C(COc1ccc(Cl)c(F)c1)NC12CC(NC(=O)c3ccc4ncsc4c3)(C1)C2` [Compound 773, N-{3-[2-(4-chloro-3-fluorophenoxy)acetamido]bicyclo[1.1.1]pentan-1-yl}-1,3-benzothiazole-6-carboxamide], the EC50 is reported as greater than 2000 nM.
With `Cc1nn(C)cc1-c1ccnc(NC23CC(NC(=O)COc4ccc(Cl)c(F)c4)(C2)C3)n1` [Compound 429, 2-(4-chloro-3-fluorophenoxy)-N-(3-{[4-(1,3-dimethyl-1H-pyrazol-4-yl)pyrimidin-2-yl]amino}bicyclo[1.1.1]pentan-1-yl)acetamide] the EC50 was greater than 2000 nM.
Work on `CN(C)Cc1ccccc1C(=O)NC12CC(NC(=O)COc3ccc(Cl)c(F)c3)(C1)C2` [Compound 542, N-{3-[2-(4-chloro-3-fluorophenoxy)acetamido]bicyclo[1.1.1]pentan-1-yl}-2-[(dimethylamino)methyl]benzamide] yielded an EC50 greater than 2000 nM.
Compound `COc1cc(C(=O)NC23CC(NC(=O)COc4ccc(Cl)c(F)c4)(C2)C3)on1` [Compound 253, N-{3-[2-(4-chloro-3-fluorophenoxy)acetamido]bicyclo[1.1.1]pentan-1-yl}-3-methoxy-1,2-oxazole-5-carboxamide] has an EC50 of 50 to 250 nM.
With `O=C(COc1ccc(Cl)c(F)c1)NC12CC(NC(=O)c3ccc(OC(F)(F)F)nc3)(C1)C2` [Compound 132, N-{3-[2-(4-chloro-3-fluorophenoxy)acetamido]bicyclo[1.1.1]pentan-1-yl}-6-(trifluoromethoxy)pyridine-3-carboxamide] the EC50 was 50 to 250 nM.
`Cc1csc(C(=O)NC23CC(NC(=O)COc4ccc(Cl)c(F)c4)(C2)C3)n1` [Compound 450, N-{3-[2-(4-chloro-3-fluorophenoxy)acetamido]bicyclo[1.1.1]pentan-1-yl}-4-methyl-1,3-thiazole-2-carboxamide] showed an EC50 of 50 to 250 nM.
`CCCCc1ccc(C(=O)NC23CC(NC(=O)COc4ccc(Cl)c(F)c4)(C2)C3)nc1` [Compound 135, 5-butyl-N-{3-[2-(4-chloro-3-fluorophenoxy)acetamido]bicyclo[1.1.1]pentan-1-yl}pyridine-2-carboxamide] was tested, and the EC50 was 50 to 250 nM.
Compound `Cc1cc2c(NC34CC(NC(=O)COc5ccc(Cl)c(F)c5)(C3)C4)nccn2n1` [Compound 394, 2-(4-chloro-3-fluorophenoxy)-N-{3-[(2-methylpyrazolo[1,5-a]pyrazin-4-yl)amino]bicyclo[1.1.1]pentan-1-yl}acetamide] has an EC50 of less than 50 nM.
`COCc1ccc(C(=O)NC23CC(NC(=O)COc4ccc(Cl)c(F)c4)(C2)C3)o1` [Compound 242, N-{3-[2-(4-chloro-3-fluorophenoxy)acetamido]bicyclo[1.1.1]pentan-1-yl}-5-(methoxymethyl)furan-2-carboxamide] gave an EC50 of 50 to 250 nM.
`Cc1nc(C(F)(F)F)c(C(=O)NC23CC(NC(=O)COc4ccc(Cl)c(F)c4)(C2)C3)s1` [Compound 837, N-{3-[2-(4-chloro-3-fluorophenoxy)acetamido]bicyclo[1.1.1]pentan-1-yl}-2-methyl-4-(trifluoromethyl)-1,3-thiazole-5-carboxamide] was tested, and the EC50 was greater than 2000 nM.
In the case of `O=C(COc1ccc(Cl)c(F)c1)NC12CC(Nc3cc(C(F)(F)F)ccn3)(C1)C2` [Compound 757, 2-(4-chloro-3-fluorophenoxy)-N-(3-{[4-(trifluoromethyl)pyridin-2-yl]amino}bicyclo[1.1.1]pentan-1-yl)acetamide], the EC50 is reported as greater than 2000 nM.
Compound `O=C(COc1ccc2c(c1)OC(F)(F)O2)NC12CC(NC(=O)c3ccccn3)(C1)C2` [Compound 400, N-(3-{2-[(2,2-difluoro-2H-1,3-benzodioxol-5-yl)oxy]acetamido}bicyclo[1.1.1]pentan-1-yl)pyridine-2-carboxamide] has an EC50 of 250 to 1000 nM.
`Cc1c(Cl)c(C(=O)NC23CC(NC(=O)COc4ccc(Cl)c(F)c4)(C2)C3)nn1C` [Compound 780, 4-chloro-N-{3-[2-(4-chloro-3-fluorophenoxy)acetamido]bicyclo[1.1.1]pentan-1-yl}-1,5-dimethyl-1H-pyrazole-3-carboxamide] showed an EC50 greater than 2000 nM.
`O=C(COc1ccc(Cl)c(F)c1)NC12CC(NC(=O)c3ccc4nsnc4c3)(C1)C2` [Compound 797, N-{3-[2-(4-chloro-3-fluorophenoxy)acetamido]bicyclo[1.1.1]pentan-1-yl}-2,1,3-benzothiadiazole-5-carboxamide] showed an EC50 greater than 2000 nM.
`Cc1cc(C(=O)NC23CCC(NC(=O)COc4ccc(Cl)c(Cl)c4)(CC2)[C@@H](O)C3)on1` [Compound 759, N-{(3S)-4-[2-(3,4-dichlorophenoxy)acetamido]-3-hydroxybicyclo[2.2.2]octan-1-yl}-3-methyl-1,2-oxazole-5-carboxamide] showed an EC50 of less than 50 nM.
With `CCn1cc(C(=O)NC23CC(NC(=O)COc4ccc(Cl)c(F)c4)(C2)C3)c(C)n1` [Compound 825, N-{3-[2-(4-chloro-3-fluorophenoxy)acetamido]bicyclo[1.1.1]pentan-1-yl}-1-ethyl-3-methyl-1H-pyrazole-4-carboxamide] the EC50 was 250 to 1000 nM.
With `O=C(COc1ccc(Cl)c(F)c1)NC12CC(Nc3ccc(C(F)(F)F)nn3)(C1)C2` [Compound 127, 2-(4-chloro-3-fluorophenoxy)-N-(3-{[6-(trifluoromethyl)pyridazin-3-yl]amino}bicyclo[1.1.1]pentan-1-yl)acetamide] the EC50 was greater than 2000 nM.
`Cc1nc(C(=O)NC23CCC(NC(=O)COc4ccc(Cl)c(F)c4)(CC2)C(O)C3)nn1C` (stereo not shown) [Compound 657, N-{4-[2-(4-chloro-3-fluorophenoxy)acetamido]-3-hydroxybicyclo[2.2.2]octan-1-yl}-1,5-dimethyl-1H-1,2,4-triazole-3-carboxamide] showed an EC50 greater than 2000 nM.
`O=C(COc1ccc(Cl)c(F)c1)NC12CC(NC(=O)c3cc(OC(F)F)ccn3)(C1)C2` [Compound 300, N-{3-[2-(4-chloro-3-fluorophenoxy)acetamido]bicyclo[1.1.1]pentan-1-yl}-4-(difluoromethoxy)pyridine-2-carboxamide] gave an EC50 of 250 to 1000 nM.
For `N#Cc1cncc(NC23CC(NC(=O)COc4ccc(Cl)c(F)c4)(C2)C3)n1` [Compound 745, 2-(4-chloro-3-fluorophenoxy)-N-{3-[(6-cyanopyrazin-2-yl)amino]bicyclo[1.1.1]pentan-1-yl}acetamide], the EC50 was greater than 2000 nM.
`O=C(COc1ccc(Cl)c(F)c1)NC12CCC(NC(=O)c3ccc(OC(F)F)nc3)(C1)C2` [Compound 574, N-{4-[2-(4-chloro-3-fluorophenoxy)acetamido]bicyclo[2.1.1]hexan-1-yl}-6-(difluoromethoxy)pyridine-3-carboxamide] gave an EC50 of 50 to 250 nM.
`CC(C)(C)c1nc(C(=O)NC23CCC(NC(=O)COc4ccc(Cl)c(F)c4)(CC2)C(O)C3)co1` (stereo not shown) [Compound 629, 2-tert-butyl-N-{4-[2-(4-chloro-3-fluorophenoxy)acetamido]-3-hydroxybicyclo[2.2.2]octan-1-yl}-1,3-oxazole-4-carboxamide] was tested, and the EC50 was 250 to 1000 nM.
`O=C(COc1ccc(Cl)c(Cl)c1)NC12CC(NC(=O)c3nc(C4CC4)cs3)(C1)C2` [Compound 697, 4-cyclopropyl-N-{3-[2-(3,4-dichlorophenoxy)acetamido]bicyclo[1.1.1]pentan-1-yl}-1,3-thiazole-2-carboxamide] gave an EC50 of less than 50 nM.
With `O=C(COc1ccc(Cl)c(F)c1)NC12CC(NC(=O)c3cc(-c4ccc(Cl)cc4)no3)(C1)C2` [Compound 392, N-{3-[2-(4-chloro-3-fluorophenoxy)acetamido]bicyclo[1.1.1]pentan-1-yl}-3-(4-chlorophenyl)-1,2-oxazole-5-carboxamide] the EC50 was less than 50 nM.
For `O=C(COc1ccc(Cl)c(F)c1)NC12CC(NC(=O)c3ccccn3)(C1)C2` [Compound 129, N-{3-[2-(4-chloro-3-fluorophenoxy)acetamido]bicyclo[1.1.1]pentan-1-yl}pyridine-2-carboxamide], the EC50 was 50 to 250 nM.
For `N#Cc1ccnc(C(=O)NC23CC(NC(=O)COc4ccc(Cl)c(F)c4)(C2)C3)c1` [Compound 182, N-{3-[2-(4-chloro-3-fluorophenoxy)acetamido]bicyclo[1.1.1]pentan-1-yl}-4-cyanopyridine-2-carboxamide], the EC50 was 50 to 250 nM.
For `O=C(COc1ccc(Cl)c(F)c1)NC12CC(NC(=O)c3cccc[n+]3[O-])(C1)C2` [Compound 403, N-{3-[2-(4-chloro-3-fluorophenoxy)acetamido]bicyclo[1.1.1]pentan-1-yl}-1-oxo-1λ^5-pyridine-2-carboxamide], the EC50 was greater than 2000 nM.
`Cc1ncc(C(=O)NC23CCC(NC(=O)COc4ccc(Cl)c(F)c4)(CC2)C(O)C3)s1` (stereo not shown) [Compound 471, N-{4-[2-(4-chloro-3-fluorophenoxy)acetamido]-3-hydroxybicyclo[2.2.2]octan-1-yl}-2-methyl-1,3-thiazole-5-carboxamide] gave an EC50 of 50 to 250 nM.
